Results reported in patent publication US9745554B2, “Method of improving cell proliferation of pancreatic progenitor cells in a pancreatic cell culture” (ReNeuron, Inc., priority 2006, dated 2017).

Legend:
[1] = test system: cultured pancreatic cells
Description: At least one exogenous growth factor is added to the survival media in an amount sufficient to increase the level of activated Akt in the cultured cells. Typically, the growth factors are added in a concentration range from about 10 ng/ml to about 100 ng/ml of culture media (e.g., 10, 15, 20, 30, 40, 50, 60, 70, 80, 90, 100 ng/ml of culture media). Non-limiting exemplary growth factors suitable for use with the present invention may include members of the IGF, EGF, and PDGF families.

human pancreatic cells = test: Real-time quantitative RT-PCR of endocrine and progenitor marker gene expression; format: cell-based; details: additive in control media; pancreatic endocrine cultures; FIG. 7
Description: To determine the effects of survival media on endocrine lineage cells, we studied the gene expression of our expanded pancreatic cells by quantitative RT-PCR as shown for example in FIG. 6. Total cellular RNA was isolated from cells using Nucleospin RNA II kits (BD Biosciences, Inc.). Reverse transcription was performed using 5 μg of total RNA M-MLV reverse transcriptase (Invitrogen), 10 mM DTT, 0.5 mM dNTP (Sigma, St. Louis, Mo.), 25 ng/μl of Oligo(dt) 12-18 primer (Sigma), RNase inhibitor (Sigma) and 1× First-strand buffer (Invitrogen). The mixture was heated to 65° C. for 5 minutes. Reverse transcriptase was added and incubated at 37° C. for 60 minutes. Reactions were terminated and real-time quantitative PCR was performed according to the manufacturer's instructions using Light Cycler machines 1.0 and 2.0 (Roche) in the presence of […] of 5-fold diluted cDNA. Insulin, glucagon, Somatostatin, PDX-1, Neuro-D1, CK-19, amylase, HNF3-beta, and β-actin primer sequences were designed based on published human mRNA sequences. Data for mRNA was presented according to calculations using absolute quantification methods, or as a fold increase over the control. All expression levels of the different genes were normalized to β-actin. […]

caspases 3 and 7 = test: Apo-ONE caspase 3/7 assay on cell lysates; format: cell-based, human; details: FIG. 1
Description: In some embodiments, the presence of caspases 3 and 7 and the extent of cell death is measured using the APO-ONE™ caspase assay (see, e.g., FIG. 1) according to the manufacturers instructions (Promega Inc., Madison, Wis.).
One of the hallmarks of apoptosis is caspase activation. The downstream caspases 3 and 7 have a consensus cleavage sequence DEVD (SEQ ID NO: 1). For determination of the extent of apoptosis in our cultures, we used the Apo-ONE assay system (Promega), according to the manufacturer's instructions (FIG. 1). Cells were plated on 96 well plates, and cell lysates were prepared in a buffer that supports caspase activity (Promega, Madison, Wis.) and analyzed on a fluorescent plate reader using the Apo-ONE caspase 3/7 fluorescent assay (Promega, Madison, Wis.) at an excitation wavelength was 485 run and an emission wavelength was 530 nm.

Compound	works as exogenous growth factor with the invention [1]	insulin mRNA normalized to β-actin mRNA, fold increase over control media alone (human pancreatic cells) [fold]	caspase activation in pancreatic cells (caspases 3 and 7; 1 μM inhibitor, P0 adherent pancreatic cells)	concentration dependence of caspase inhibition (caspases 3 and 7; three independent experiments)
VEGF	did not work			
CC(C)C(NC(=O)c1ccc2ccccc2n1)C(=O)NC(CC(=O)O)C(=O)COc1c(F)cccc1F (stereo not shown) [OPH-109, non-O-methylated Q-VD-OPH]		10	completely reversed the caspase activation	concentration dependence of caspase inhibition
